Drawing on article PMC6935173, “Characterization of a vacuolar sucrose transporter, HbSUT5, from Hevea brasiliensis: involvement in latex production through regulation of intracellular sucrose transport in the bark and laticifers” (BMC Plant Biology, 2019), this text covers activity and Km for two molecules.

Data set [1] addresses T1, HbSUT5 (Hevea brasiliensis, UniProt A0T058).
T1 construct: gene SUT5; ORF primers give start MAIPQ
T1 sequence (A0T058 1-498): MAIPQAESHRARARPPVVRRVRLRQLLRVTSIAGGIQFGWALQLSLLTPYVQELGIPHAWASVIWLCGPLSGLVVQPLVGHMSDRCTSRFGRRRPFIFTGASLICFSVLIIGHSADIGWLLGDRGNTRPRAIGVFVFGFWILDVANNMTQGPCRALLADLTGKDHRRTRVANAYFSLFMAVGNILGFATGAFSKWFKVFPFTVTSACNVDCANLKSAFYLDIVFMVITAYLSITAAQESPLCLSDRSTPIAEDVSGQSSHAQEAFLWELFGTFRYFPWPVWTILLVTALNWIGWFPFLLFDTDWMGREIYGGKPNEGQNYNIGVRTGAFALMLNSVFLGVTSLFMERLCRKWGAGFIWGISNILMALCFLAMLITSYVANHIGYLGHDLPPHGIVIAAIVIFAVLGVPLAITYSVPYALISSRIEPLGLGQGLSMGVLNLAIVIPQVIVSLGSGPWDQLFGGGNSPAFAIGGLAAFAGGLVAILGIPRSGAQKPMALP
Put plainly: competition with […]-sucrose uptake in yeast SEY6210. It counts as cell-based.

Substrate in data set [2]: OC[C@H]1O[C@@](CO)(O[C@H]2O[C@H](CO)[C@@H](O)[C@H](O)[C@H]2O)[C@@H](O)[C@@H]1O
The experiment in a line: cells, lysate or membranes. The conditions noted are these: pH 5.5, 0.5-8 mM sucrose, labelled compound, H+ symport, whole yeast cells. It counts as cell-based, Hevea brasiliensis.

The molecule `OC[C@H]1O[C@H](O[C@H]2[C@H](O)[C@@H](O)C(O)O[C@@H]2CO)[C@H](O)[C@@H](O)[C@@H]1O` (some centres unmarked) [Maltose] showed an activity at 10000 µM in data set [1] of 44 ± 3.4%.

B1: HbSUT5 (Hevea brasiliensis) (protein)
chain: T1 sequence (A0T058 1-498)
notes: ORF primers give start MAIPQ
Take B1: the Km – broadly, the concentration of substrate that gives half-maximal velocity – in data set [2] is listed as 2.03 mM.
